Assay results reported in ChEMBL document CHEMBL1201862, “PubChem BioAssay data set” (2004).
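A five-concentration, 48-hour dose response in 96-well plates underlies each endpoint, interpolated linearly between surrounding concentrations. Here, GI50 denotes the concentration required for 50% inhibition of growth.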 The source made the active and inactive calls. Rule as the data show it: active = GI50 up to about 1.1 µM and inactive = higher.

What was measured:
Assay in all cases: NCI anticancer screen, dose series, 48 h
[1] = tested on: COLO 205
[2] = tested on: UO-31
[3] = tested on: SK-MEL-2
[4] = tested on: DU-145
[5] = tested on: SK-MEL-5
[6] = tested on: OVCAR-8
[7] = tested on: 786-0
[8] = tested on: OVCAR-3
[9] = tested on: T47D
[10] = tested on: ACHN
[11] = tested on: HOP-92
[12] = tested on: HOP-62
[13] = tested on: RPMI-8226
[14] = tested on: K562
[15] = tested on: OVCAR-4
[16] = tested on: MDA-N
[17] = tested on: PC-3
[18] = tested on: LOX IMVI
[19] = tested on: HL-60
[20] = tested on: CCRF-CEM

Row | SMILES | GI50 [1] | GI50 [2] | GI50 [3] | GI50 [4] | GI50 [5] | GI50 [6] | GI50 [7] | GI50 [8] | GI50 [9] | GI50 [10] | GI50 [11] | GI50 [12] | GI50 [13] | GI50 [14] | GI50 [15] | GI50 [16] | GI50 [17] | GI50 [18] | GI50 [19] | GI50 [20]
1 | COC(=O)[C@@H]1CCCN1CCN1CCC[C@H]1C(=O)OC | > 100 µM (inactive) | > 100 µM (inactive) | > 100 µM (inactive) | > 100 µM (inactive) | > 100 µM (inactive) | > 100 µM (inactive) | > 100 µM (inactive) | > 100 µM (inactive) | > 100 µM (inactive) | > 100 µM (inactive) | > 100 µM (inactive) | > 100 µM (inactive) | > 100 µM (inactive) | > 100 µM (inactive) | > 100 µM (inactive) | > 100 µM (inactive) | > 100 µM (inactive) |  |  | 
2 | COc1ccc(/C=C/c2ccnc3ccccc23)cc1OC | 12.6 µM (inactive) | 0.186 µM (active) | 19.4 µM (inactive) | 13.7 µM (inactive) | 14.8 µM (inactive) |  | 44.3 µM (inactive) | 12.5 µM (inactive) | 11.7 µM (inactive) | 24.2 µM (inactive) |  | 15.1 µM (inactive) | 28.1 µM (inactive) | 9.79 µM (inactive) | 12.3 µM (inactive) | 14.1 µM (inactive) | 15.8 µM (inactive) | 10 µM (inactive) | 11.3 µM (inactive) | 13.2 µM (inactive)
3 | CCOC(=O)c1ccc(C(=O)/C(C#N)=C2\CCCN2C)[nH]1 | > 100 µM (inactive) | > 100 µM (inactive) | > 100 µM (inactive) | > 100 µM (inactive) | > 100 µM (inactive) | > 100 µM (inactive) | > 100 µM (inactive) | > 100 µM (inactive) | > 100 µM (inactive) | > 100 µM (inactive) |  | > 100 µM (inactive) | > 100 µM (inactive) | > 100 µM (inactive) | > 100 µM (inactive) | > 100 µM (inactive) | > 100 µM (inactive) | > 100 µM (inactive) | > 100 µM (inactive) | > 100 µM (inactive)
4 | CC(C)(C)c1ccc(O)c(C(O)c2ccccn2)c1 (stereo unspecified) | > 100 µM (inactive) | 39.7 µM (inactive) |  | > 100 µM (inactive) |  | > 100 µM (inactive) | 61.8 µM (inactive) | > 100 µM (inactive) | 34.9 µM (inactive) | > 100 µM (inactive) |  | > 100 µM (inactive) | 58.5 µM (inactive) | 42.9 µM (inactive) |  | > 100 µM (inactive) | 86.1 µM (inactive) | 54.8 µM (inactive) | 45.1 µM (inactive) | 38.2 µM (inactive)
5 | Cc1sc(N/N=C2\C(=O)Nc3ccccc32)nc1-c1ccccc1 | 13.4 µM (inactive) | 13.6 µM (inactive) | 18.7 µM (inactive) | 11.6 µM (inactive) | 12.6 µM (inactive) | 17.5 µM (inactive) | 17.4 µM (inactive) | 12.6 µM (inactive) | 13.6 µM (inactive) | 15.3 µM (inactive) | 23 µM (inactive) | 12 µM (inactive) |  |  | 13.9 µM (inactive) | 19.4 µM (inactive) |  | 12.6 µM (inactive) | 4.23 µM (inactive) | 
6 | COc1ccc(C(OCC2OC(n3ccc(NC(=O)c4ccccc4)nc3=O)CC2OP2(=S)SCCS2)(c2ccccc2)c2ccc(OC)cc2)cc1 (stereo unspecified) | > 10 µM (inactive) | > 100 µM (inactive) | 43.6 µM (inactive) | 32.9 µM (inactive) | 22.4 µM (inactive) | 27.2 µM (inactive) | 24.4 µM (inactive) | 22.6 µM (inactive) | 36.3 µM (inactive) | 18.6 µM (inactive) |  | 20.7 µM (inactive) | > 100 µM (inactive) | > 100 µM (inactive) | 30.1 µM (inactive) | > 10 µM (inactive) | 17.8 µM (inactive) | 14.9 µM (inactive) |  | 
7 | CC(=O)Nn1cnc(C(=N)C#N)c1N | > 100 µM (inactive) | > 100 µM (inactive) | > 100 µM (inactive) | > 100 µM (inactive) | > 100 µM (inactive) | > 100 µM (inactive) | > 100 µM (inactive) | > 100 µM (inactive) | > 100 µM (inactive) | > 100 µM (inactive) |  | > 100 µM (inactive) | > 100 µM (inactive) | > 100 µM (inactive) | > 100 µM (inactive) | > 100 µM (inactive) | > 100 µM (inactive) | > 100 µM (inactive) | > 100 µM (inactive) | > 100 µM (inactive)
8 | CC(C)(C)OC(=O)N(O)[C@@H]1C=C[C@H](n2cnc3c(N)ncnc32)C1 | > 100 µM (inactive) | > 100 µM (inactive) | > 100 µM (inactive) | > 100 µM (inactive) | 70.5 µM (inactive) | > 100 µM (inactive) | > 100 µM (inactive) | > 100 µM (inactive) | > 100 µM (inactive) | > 100 µM (inactive) | > 100 µM (inactive) | 43 µM (inactive) | > 100 µM (inactive) | > 100 µM (inactive) | > 100 µM (inactive) | > 100 µM (inactive) | > 100 µM (inactive) | > 100 µM (inactive) |  | > 100 µM (inactive)
9 | C=C1C(=O)OC2C1CCC(C)C1(O)C=CC(=O)C21C (stereo unspecified) | > 10 µM (inactive) | 3.24 µM (inactive) | > 10 µM (inactive) |  | > 10 µM (inactive) | 3.5 µM (inactive) | 6.11 µM (inactive) | 4.9 µM (inactive) | 6.31 µM (inactive) | 5.66 µM (inactive) | 3.33 µM (inactive) | > 10 µM (inactive) | 5.43 µM (inactive) | 4.45 µM (inactive) | 7.6 µM (inactive) | 6.85 µM (inactive) | > 10 µM (inactive) | > 10 µM (inactive) | 2.39 µM (inactive) | 2.73 µM (inactive)
10 | C[C@@]12C[C@@H](c3ccccc3O1)N1Cc3ccccc3CSC1=N2 | 35.2 µM (inactive) | > 100 µM (inactive) | > 100 µM (inactive) | 69.3 µM (inactive) | 44.4 µM (inactive) | > 100 µM (inactive) | 38.8 µM (inactive) | 35.4 µM (inactive) | 72.9 µM (inactive) | > 100 µM (inactive) | > 100 µM (inactive) | > 100 µM (inactive) | > 100 µM (inactive) | 64.9 µM (inactive) | 66.1 µM (inactive) | 93.5 µM (inactive) | 83.6 µM (inactive) | 35.5 µM (inactive) |  | 
11 | CCOc1nnnc2[nH]cnc12 | > 100 µM (inactive) | > 100 µM (inactive) | > 100 µM (inactive) | > 100 µM (inactive) | > 100 µM (inactive) | > 100 µM (inactive) | > 100 µM (inactive) | > 100 µM (inactive) | > 100 µM (inactive) |  |  | > 100 µM (inactive) | > 100 µM (inactive) |  | > 100 µM (inactive) | > 100 µM (inactive) | > 100 µM (inactive) | > 100 µM (inactive) | > 100 µM (inactive) | 
12 | CC(C)C[C@H](NC(=O)[C@@H](N)Cc1cccc2ccccc12)B(O)O | 0.0417 µM (active) | 0.0331 µM (active) | 0.0399 µM (active) | 0.44 µM (active) | < 0.0169 µM (active) | 0.0719 µM (active) | < 0.0216 µM (active) | < 0.0149 µM (active) | 0.0168 µM (active) | 0.189 µM (active) | 0.398 µM (active) | 0.0575 µM (active) | < 0.0164 µM (active) |  | 0.232 µM (active) | 0.182 µM (active) | 0.0667 µM (active) | < 0.0179 µM (active) |  | 
13 | S=C1CC(c2ccccc2)Sc2cc(Cl)ccc2N1 (stereo unspecified) | 5.02 µM (inactive) | 44.5 µM (inactive) |  | > 100 µM (inactive) | 5.64 µM (inactive) | 13.2 µM (inactive) | 5.42 µM (inactive) | 2.49 µM (inactive) | 21.6 µM (inactive) | 9.46 µM (inactive) |  | 5.61 µM (inactive) | 43.5 µM (inactive) | 0.64 µM (active) | 13.2 µM (inactive) | 0.661 µM (active) | 1.87 µM (inactive) | 4.09 µM (inactive) | 0.726 µM (active) | 1.36 µM (inactive)
14 | CC(=O)c1c(N=[N+]=[N-])c2cccc3c2n(c1=O)CCC3 | 21.4 µM (inactive) | 30.2 µM (inactive) | 21.7 µM (inactive) |  | 14.7 µM (inactive) | 0.957 µM (active) | 14.7 µM (inactive) | 4.21 µM (inactive) | 22.6 µM (inactive) | 24.9 µM (inactive) | 31.8 µM (inactive) | 20 µM (inactive) | 25.9 µM (inactive) | 21.8 µM (inactive) | 21 µM (inactive) | 18.5 µM (inactive) | 17.3 µM (inactive) | 15.1 µM (inactive) |  | 19.1 µM (inactive)
15 | COc1cc(Cc2nccc3cc(OC)c(OC)cc23)c(/N=N/N(C)C)cc1OC | 14.4 µM (inactive) | 10 µM (inactive) | 30.6 µM (inactive) | 17.5 µM (inactive) | 12.1 µM (inactive) | 15.7 µM (inactive) | 4 µM (inactive) | 15.5 µM (inactive) | 5.36 µM (inactive) | 15.1 µM (inactive) |  | 23.7 µM (inactive) | 4.73 µM (inactive) | 4.28 µM (inactive) | 20.5 µM (inactive) | 19 µM (inactive) | 10.7 µM (inactive) |  |  | 3.18 µM (inactive)
16 | CSc1[nH]nc(N)c1C(=O)Nc1ccc(Cl)cc1 | 99.5 µM (inactive) | 33 µM (inactive) | > 100 µM (inactive) | 68.5 µM (inactive) | > 100 µM (inactive) | 40.9 µM (inactive) | 52.1 µM (inactive) | > 100 µM (inactive) | 58.1 µM (inactive) |  |  |  | 37.7 µM (inactive) | 51.3 µM (inactive) | 50.5 µM (inactive) | > 100 µM (inactive) | 55.5 µM (inactive) | 76.9 µM (inactive) | 34.8 µM (inactive) | 27 µM (inactive)
